The target of assay [1] is T1, microtubule proteins originated from swine brain (Sus scrofa, UniProt P02550+P02554).
T1 construct: Microtubule proteins was extracted from swine brain by the Shelansky method; from tissue; host or cells: swine brain
Put plainly: Tubulin polymerization inhibitory test (turbidity measurement). Conditions: microtubule proteins 2 mg/ml, GTP 1 mM, 37° C. for 30 min, absorbance at 340 nm; read-out: IC50 (tubulin polymerization inhibition) (converted). Format: biochemical. The protocol: Tubulin polymerization inhibitory test using microtubule proteins originated from swine brain: Microtubule proteins was extracted from swine brain by the Shelansky method(Tanpakusitu jikkenhou, Zoku-Seikagaku Jikken Kouza, Vol.6, “Structure and Function of Cytoskeleton” (1st Vol.), Tokyo Kagaku Dojin). Polymerization of microtubule proteins was assayed by turbidity measurement.
Change in turbidity can be measured by an absorptiometer. The compounds of the present invention were dissolved in dimethylsulfoxide to prepare their test solutions. To 245 μl of a RB solution containing microtubule proteins(2 mg/ml)and GTP(1 mM) was added 5μl of either an above test solution or dimethylsulfoxide to prepare a sample, which was incubated at 37° C. for 30 min. […] Absorbance at 340 nm of the compound was previously measured.
Inhibitory Rate(%)=[1−(T−Cmin)/(Cmax−Cmin)]×100
where T is absorbance of the incubated sample with a test compound, Cmax is absorbance of the incubated sample without the compound, and Cmin is the non-incubated sample without the compound.

For assay [2], the system named is A2780 (Humane Ovarian Cancer Cell). Put plainly: Anti-tumor in vitro test using A2780 (MTT). Conditions: Homo sapiens, A2780, 72 h, 3 days incubation, absorbance at 540 nm, read-out: IC50 (A2780 growth inhibition). In kind it is cell-based. The protocol: A2780 cells that were suspended on a RPMI 1640 culture medium containing 10% calf serum, penicillin (50 U/ml), and streptomycin (50 μg/ml were seeded in a 96 well flat microplate by 1000 cells (0.2 ml) well, and cultured in a 5% carbon dioxide atmospheric incubator at 37° C. for 1 day. The compounds of the present invention that were dissolved in dimetylsulfoxide anddiluted with a RPMI 1640 containing 10% calf serum to prepare the samples, provided that dimetylsulfoxide was restricted to 0.2% and below in concentration.
The Supernatant liquids of the above A2780 cells wells were removed by aspiration, and then each 0. 2 ml of the prepared samples were added to the wells, which were incubated in a 5% carbon dioxide atmospheric incubator at 37° C. for 3 days. After the incubation, each 0.01 ml of MTT solutions(3-(4,5-dimethylthiazole-2-yl)-2,5-dipheny-ltetra zolium bromide, 5 mg/ml) were added to the wells, which were incubated for another 2 hrs. After the supernatant liquids in the wells were removed by aspiration, the formazans formed in the wells were dissolved in 0.1 ml of dimetylsulfoxide, and absorbances at 540 nm were measured by a micro plate reader to determine indices of live cells counts in the wells.
Inhibitory Rate(%)=[(C−T)/C]×100
where T is absorbance in the well with a test compound and C is absorbance in the well without the compound.

The subject of assay [3] is collagen-induced arthritis in mice. Put plainly: Prophylactic experiment of collagen-induced arthritis in mice. In kind it is in vivo. Conditions: last day of test. The protocol:
The suspension of M. tuberculosis H37RA in Freund […] adjuvant (2 mg/ml) was mixed with 0.3% typeII collagen (extracted from bovine articular cartilage, Collagen Gijutsu KensyU Kai) in their equal amounts to form an emulsion, 0.1 ml of which was injected subcutaneously into the base of the tail of mice to sensitize it. After twenty-one days, 0.3% type II collagen was diluted with physiological saline solution to the one sixth concentration of the solution, 0.2 ml of which was injected intraperitoneally to sensitize secondarily. The mice that the first sensitizations caused to fall into arthritis were excluded from the test. The suspensions of the compounds(in the Example 13, 27, and 28) in 0.5% sodium carboxy methylcellulose (CMC—Na) were administrated orally to the test group mice once a day for 5 weeks from the day after the second sensitization. 0.5% CMC—Na solutions were administrated to the control group mice to be compared with. Each group was composed of eight mice. […] Scores and their standards are as follows.
1: Tumefaction or rubor in only one finger(or heel)
2: Tumefaction or rubor in two or above fingers (or heels) or in parts of fore (or hind) paw(s)
3: Tumefaction or rubor in the wholes of fore (or hind) paw(s) including joints
4: Ankylosis in the joints of finger(s) (or heel(s)) or fore (or hind) paw(s)

[4] abbreviates: 50 mg/kg orally once a day for 5 weeks.

Converted amounts (≈) assume the structure as drawn.

T1 sequence (P02550 whole entry): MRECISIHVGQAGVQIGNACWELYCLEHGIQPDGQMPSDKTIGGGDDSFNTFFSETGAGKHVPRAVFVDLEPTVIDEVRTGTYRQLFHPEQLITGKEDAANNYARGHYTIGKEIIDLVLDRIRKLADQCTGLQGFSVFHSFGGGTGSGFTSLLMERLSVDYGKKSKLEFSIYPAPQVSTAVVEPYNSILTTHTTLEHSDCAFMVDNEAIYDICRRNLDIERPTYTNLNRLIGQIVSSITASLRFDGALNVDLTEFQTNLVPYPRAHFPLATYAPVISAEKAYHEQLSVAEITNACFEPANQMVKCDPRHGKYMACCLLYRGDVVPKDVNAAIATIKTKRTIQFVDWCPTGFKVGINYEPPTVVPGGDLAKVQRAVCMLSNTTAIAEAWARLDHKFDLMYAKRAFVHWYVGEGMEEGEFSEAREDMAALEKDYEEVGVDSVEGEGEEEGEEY
T1 sequence (P02554 whole entry): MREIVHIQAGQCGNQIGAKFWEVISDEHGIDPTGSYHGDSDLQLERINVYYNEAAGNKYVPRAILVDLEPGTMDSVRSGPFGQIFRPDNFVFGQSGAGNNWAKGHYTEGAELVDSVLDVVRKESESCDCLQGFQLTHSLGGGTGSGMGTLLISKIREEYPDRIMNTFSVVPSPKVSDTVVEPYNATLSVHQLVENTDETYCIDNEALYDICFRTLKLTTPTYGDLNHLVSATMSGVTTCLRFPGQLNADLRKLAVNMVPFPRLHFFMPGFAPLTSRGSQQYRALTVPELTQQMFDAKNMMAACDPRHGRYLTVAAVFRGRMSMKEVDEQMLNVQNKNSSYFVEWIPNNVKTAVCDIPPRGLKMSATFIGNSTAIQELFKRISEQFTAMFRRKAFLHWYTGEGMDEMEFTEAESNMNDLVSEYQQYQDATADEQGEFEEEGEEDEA

Regarding `COc1ccc(S(=O)(=O)Nc2ccccc2NC(=O)C2CSCN2)cc1.Cl` (racemic) [Example 15, (±)-N-[2-(4-Methoxybenzenesulfonamide)phenyl]-4-thiazolidine Carboxamide HCl Salt], the results for the IC50 in assay [1] and in assay [2] were 4.3 µM and 0.025 µg/mL, respectively.

For `COc1ccc(S(=O)(=O)Nc2ccccc2NC(=O)C2CCCCN2)cc1.Cl` (racemic) [Example 20, (±)-N-[2-4-Methoxybenzenesulfonamide)phenyl]-2piperidine Carboxamide HCl Salt], the IC50 in assay [2] amounted to 6.8 µg/mL.

For `COc1ccc(S(=O)(=O)Nc2ccccc2NC(=O)c2cnoc2C)cc1` [Example 1, N-[2-(4-Methoxybenzenesulfonamide)phenyl]-5-methyl-4-isoxazole Carboxamide], the IC50 in assay [1] was 3.1 µM; in assay [2] it was 0.023 µg/mL (≈ 0.0594 µM).

Turning to `COc1ccc(S(=O)(=O)Nc2ccccc2NC(=O)c2cn(C)nc2C)cc1` [Example 2, N-[2-(4-Methoxybenzenesulfonamide)phenyl]-3-dimethyl-4-(1H-pyrazole)carboxamide], the IC50 was 89.9 µM in assay [1] and 0.58 µg/mL (≈ 1.45 µM) in assay [2].

As for `COc1ccc(S(=O)(=O)Nc2ccccc2NC(=O)c2csc(C)n2)cc1` [Example 3, N-[2-(4-Methoxybenzenesulfonamide)phenyl]-2-methyl-4-thiazole Carboxamide], the values for the IC50 in assay [1] and in assay [2] were 94.2 µM and 0.22 µg/mL (≈ 0.545 µM), respectively.

For the compound `COc1ccc(S(=O)(=O)Nc2ccccc2NC(=O)c2csnc2C)cc1` [Example 4, N-[2-(4-Methoxybenzenesulfonamide)phenyl]-3-methyl-4-isothiazole Carboxamide], the values for the IC50 in assay [1] and in assay [2] were 3.47 µM and 0.017 µg/mL (≈ 0.0421 µM), respectively.

`COc1ccc(S(=O)(=O)Nc2ccccc2NC(=O)c2nc(C)oc2C)cc1` [Example 5, N-[2-(4-Methoxybenzenesulfonamide)phenyl]-2,5-dimethyl-4-oxazole Carboxamide]: the concentration for half-maximal inhibition (IC50) in assay [2] was 7.2 µg/mL (≈ 17.9 µM).

For the compound `COc1ccc(S(=O)(=O)Nc2ccccc2NC(=O)c2cn(C)cn2)cc1` [Example 6, N-[2-(4-Methoxybenzenesulfonamide)phenyl]-1-methyl-1H-imidazole-4-carboxamide], the results for the IC50 in assay [1] and in assay [2] were 101 µM and 0.14 µg/mL (≈ 0.362 µM), respectively.

Regarding `Cc1ccc(S(=O)(=O)Nc2ccccc2NC(=O)c2cnoc2C)cc1` [Example 7, N-[2-(p-Toluenesulfonamide)phenyl]-5-methyl-4-isoxazole Carboxamide], the IC50 was 13.7 µM in assay [1] and 0.2 µg/mL (≈ 0.538 µM) in assay [2].

For `Cc1oncc1C(=O)Nc1ccccc1NS(=O)(=O)c1ccccc1` [Example 8, N-[2-(Benzenesulfonamide)phenyl]-5-methyl-4-isoxazole Carboxamide], the concentration for half-maximal inhibition (IC50) is 644 µM in assay [1] and 6.7 µg/mL (≈ 18.7 µM) in assay [2].

Consider `Cc1oncc1C(=O)Nc1ccccc1NS(=O)(=O)c1ccc(F)cc1` [Example 9, N-[2-(4-Fluorobenzenesulfonamide)phenyl]-5-methyl-4-isoxazole Carboxamide], for which the half-inhibitory concentration (IC50) in assay [1] was 400 µM; in assay [2], 13 µg/mL (≈ 34.6 µM).

As for `COc1ccc(S(=O)(=O)Nc2ccccc2NC(=O)c2cnoc2C)cc1OC` [Example 11, N-[2-(3,4-Dimethoxybenzenesulfonamide)phenyl]-5-methyl-4-isoxazole Carboxamide], the IC50 in assay [1] is 359 µM; in assay [2], 0.68 µg/mL (≈ 1.63 µM).

In the case of `COc1ccc(S(=O)(=O)Nc2ccccc2NC(=O)[C@@H]2CCCN2)cc1.Cl` [Example 12, N-[2-(4-Methoxybenzenesulfonamide)phenyl]-(L)-prolinamide HCl Salt], the IC50 in assay [2] amounted to 9.7 µg/mL.

For the compound `COc1ccc(S(=O)(=O)Nc2ccccc2NC(=O)c2c(C)noc2C)cc1` [Example 13, N-[2-(4-Methoxybenzenesulfonamide)phenyl]-3,5-dimethyl-4-isoxazole Carboxamide], the IC50 is 3.49 µM in assay [1] and 0.01 µg/mL (≈ 0.0249 µM) in assay [2]. The “Averaged score (arthritis, 0 to 4 per limb, maximum 16)” value in assay [3] (25 mg/kg orally once a day for 5 weeks) is given as 2.3 ± 0.8; in assay [3] (setting [4]), 0.4 ± 0.4.

With `CCc1oncc1C(=O)Nc1ccccc1NS(=O)(=O)c1ccc(OC)cc1` [Example 14, N-[2-(4-Methoxybenzenesulfonamide)phenyl]-5-ethyl-4-isoxazole Carboxamide], the IC50 was 4.11 µM in assay [1] and 0.036 µg/mL (≈ 0.0897 µM) in assay [2].

As to `COc1ccc(S(=O)(=O)Nc2ccccc2NC(=O)[C@H]2CCCN2)cc1.Cl` [Example 17], the IC50 in assay [2] amounted to 1.4 µg/mL.

Take `COc1ccc(S(=O)(=O)Nc2ccccc2NC(=O)c2ncoc2C)cc1` [Example 21, N-[2-(4-Methoxybenzenesulfonamide)phenyl]-5-methyl-4-oxazole Carboxamide]: the values for the half-maximal inhibitory concentration (IC50) in assay [1] and in assay [2] were 12.1 µM and 0.079 µg/mL (≈ 0.204 µM), respectively.

`COc1ccc(S(=O)(=O)Nc2ccccc2NC(=O)C2CCCCC2)cc1` [Example 22, N-[2-(4-Methoxybenzenesulfonamide)phenyl]-cyclohexyl Carboxamide]: the figures for the IC50 in assay [1] and in assay [2] were 4.89 µM and 0.14 µg/mL (≈ 0.36 µM), respectively.

For `COc1ccc(S(=O)(=O)Nc2ccccc2NC(=O)C2CC2)cc1` [Example 23, N-[2-(4-Methoxybenzenesulfonamide)phenyl]-cyclopropyl Carboxamid], the IC50 in assay [1] is 3.46 µM; in assay [2], 0.006 µg/mL (≈ 0.0173 µM).

For `COc1ccc(S(=O)(=O)Nc2ccccc2NC(=O)C2CCC2)cc1` [Example 24, N-(2-(4-Methoxybenzenesulfonamide)phenyl]-cyclobutyl Carboxamid], the results for the IC50 in assay [1] and in assay [2] were 3.19 µM and 0.006 µg/mL (≈ 0.0166 µM), respectively.

For `COc1ccc(S(=O)(=O)Nc2ccccc2NC(=O)C2CCCC2)cc1` [Example 25], the IC50 in assay [1] was 4.14 µM; in assay [2], 0.05 µg/mL (≈ 0.134 µM).

On to `COc1ccc(S(=O)(=O)Nc2ccccc2NC(=O)c2cccn2C)cc1` [Example 26, N-[2-(4-Methoxybenzenesulfonamide)phenyl]-N-methyl-2-pyrrole Carboxamide], for which the values for the IC50 in assay [1] and in assay [2] were 4.93 µM and 0.034 µg/mL (≈ 0.0882 µM), respectively.

Regarding `CCc1noc(C)c1C(=O)Nc1ccccc1NS(=O)(=O)c1ccc(OC)cc1` [Example 27, N-[2-(4-Methoxybenzenesulfonamide)phenyl]-3-ethyl-5-methyl-4-isoxazole Carboxamide], the figures for the IC50 in assay [1] and in assay [2] were 4.45 µM and 0.034 µg/mL (≈ 0.0818 µM), respectively. For the same compound, the “Averaged score (arthritis, 0 to 4 per limb, maximum 16)” value in assay [3] (setting [4]) worked out at 1.7 ± 1.1.

Regarding `CCc1noc(CC)c1C(=O)Nc1ccccc1NS(=O)(=O)c1ccc(OC)cc1` [Example 29, N-[2-(4-Methoxybenzenesulfonamide)phenyl]-3,5-diethyl-4-isoxazole Carboxamide], the IC50 was 9.2 µM in assay [1] and 0.14 µg/mL (≈ 0.326 µM) in assay [2].

For the compound `COc1ccc(S(=O)(=O)Nc2ccccc2NC(=O)c2c(C)noc2C(C)C)cc1` [Example 30, N-[2-(4-Methoxybenzenesulfonamide)phenyl]-5-isopropyl-3-methyl-4-isoxazole Carboxamide], the results for the IC50 in assay [1] and in assay [2] were 7.68 µM and 0.16 µg/mL (≈ 0.373 µM), respectively.

In the case of `COc1ccc(S(=O)(=O)Nc2ccccc2NC(=O)c2c(-c3ccccc3)noc2C)cc1` [Example 31, N-[2-(4-Methoxybenzenesulfonamide)phenyl]-5-methyl-3-phenyl-4-isoxazole Carboxamide], the half-maximal inhibitory concentration (IC50) in assay [2] turned out to be 0.3 µg/mL (≈ 0.647 µM).

As to `COc1ccc(S(=O)(=O)Nc2ccccc2NC(=O)c2c(C)noc2-c2ccccc2)cc1` [Example 32, N-[2-(4-Methoxybenzenesulfonamide)phenyl]-3-methyl-5-phenyl-4-isoxazole Carboxamide], in assay [2], the IC50 amounted to 0.62 µg/mL (≈ 1.34 µM).

The IC50 is the concentration that gives 50% inhibition.

The record behind these values is US6458960B1, “Sulfonamide derivatives” (Nippon Kayaku Kabushiki Kaisha, priority 1997, dated 2002).
